Measured values: publication PMC9545781 (British Journal of Clinical Pharmacology, 2022)
Several values for one entry are separate records, joined by “and”; a condition that tells them apart may be missing. Equal entries are not always repeated. Entries after “also recorded” stand apart in the source; their conditions may differ. Where two headings read alike, the source gives them in different places.

Key:
[1] = Open-label clinical pharmacokinetic study of oral XBD173 and etifoxine in healthy volunteers (plasma LC-MSMS); format: in vivo, human; details: for AUClast / concentration at 30 min / concentration at 60 min / concentration at 120 min / concentration at 180 min / concentration at 240 min / AUC(0-t) / Cmax / Tmax / AUC0‐4 h / AUC: plasma; for Adverse events: 4 healthy volunteers, XBD173 90 mg once daily 7 days and etifoxine 50 mg TDS 7 days; for concentration at 30 min / concentration at 60 min / concentration at 120 min / concentration at 180 min / concentration at 240 min / AUC(0-t) / Cmax / Tmax / AUC: human, po; for AUC: read-out: AUC0‐4 h
Description: This was a single centre, open‐label study enrolling 4 adult healthy volunteers (aged 35–65 y) irrespective of rs6971 genotype. Detailed inclusion and exclusion criteria are shown in the supplementary information. […] As a precaution, therefore, a long washout period was chosen. The first dose was taken at the clinical research facility and the participant was monitored for 4 hours. Subsequent doses were taken at home by the participant. On day 7, the participant returned for a final assessment. […] The PI of the study was Paul M. Matthews (DPhil, FRCP, FMedSci) who is an author on the manuscript.
Plasma samples for pharmacokinetic analysis were obtained on day 1 at 0.5, 1, 2, 3, 4 hours following the first dose. […] Plasma samples were stored at −20°C or lower until analysis. Plasma samples (25 μL) were prepared for analysis by protein precipitation with acetonitrile containing internal standard (tolbutamide; 200 μL) followed by mixing (150 rpm, 15 min) and centrifugation (1500 g, 15 min). The supernatant (50) μL was diluted with water (100 μL) and mixed (100 rpm, 15 min). […] Injection volume was 1 μL.

[2] = Plasma protein binding by equilibrium dialysis; details: plasma spiked at 1 μM, 37°C, 4 hours, mean (SEM)
Description: (§1) Plasma protein binding was measured by equilibrium dialysis using 96‐well plate blocks with 2 compartments separated by a vertical cylinder of dialysis membrane (molecular weight cut off ~8000 Da; ThermoFisher Scientific). […] The unit was covered and incubated at 37°C on an orbital shaker for 4 hours. After incubation, samples from both plasma (bound) chamber and the buffer (free) chamber were taken and matrix‐matched by addition of the alternative blank matrix. Acetonitrile containing internal standard was added to all samples. […] The ratio of responses in free to bound samples equates to the free fraction.

TSPO [3] = details: cited from earlier work
TSPO [4] = assay: Estimates of TSPO occupancy from plasma concentration and binding affinity; set-up: species or system human; details: 90 mg oral XBD173
[5] = set-up: method as in PMID 19541954; details: cited from earlier work
in vitro = details: plasma, pH 7.4
Description: as §1

[6] = target: γ‐aminobutyric acid‐a receptor; details: rodent brain; cited from earlier work
[7] = Solubility limitation of etifoxine in binding assay; format: physicochemical; details: assay buffer pH 7.4
Description: The specific binding component was determined using unlabelled PK11195 (10µM). Following incubation, assays were terminated via filtration through Whatman GF/B filters, followed by 3 x 1 ml washes with ice-cold wash buffer (50mM Tris Base, 1.4mM MgCl2, pH 7.4, 4 °C). Whatman GF/B filters were pre-incubated with 0.05% polyethyleneimine (60min) before filtration. Scintillation fluid (4ml/vial, Perkin Elmer Ultima Gold MV) was added and vials counted on a Perkin Elmer Tricarb 2900 liquid scintillation counter. For each donor, each point was performed in quadruplicate. Ki (nM) values were determined using GraphPad Prism 8.1 software (GraphPad Software Inc, USA).

TSPO [8] = details: cited from earlier work; remark: listed apart in the source
[9] = test system: experimental autoimmune encephalomyelitis mouse model; details: cited from earlier work
TSPO [10] = target: TSPO (Homo sapiens, UniProt P30536); assay: Competition radioligand binding with [3H]PK11195 in human brain membranes
Description: The assay was terminated via filtration through Whatman GF/B filters. Scintillation fluid (4 mL/vial, Perkin Elmer Ultima‐Gold MV) was added and vials counted on a Perkin Elmer Tricarb 2900 liquid scintillation counter.
Tissue was obtained from 8 donors from the UK Multiple Sclerosis (MS) Tissue Bank at Imperial College. […] The tissue was stored at -80 °C until use.
Tissue blocks were homogenised in 10 times weight for volume (w/v) buffer (0.32mM sucrose, 5mM Tris base, 1mM MgCl2, pH 7.4, 4 °C). Homogenates were centrifuged (32,000g, 20min, 4 °C) followed by removal of the supernatant. Pellets were re-suspended in at least 10 times w/v buffer (50mM Tris base, 1mM MgCl2, pH 7.4, 4 °C) followed by two washes by centrifugation (32,000g, 20min, 4 °C). Membranes were suspended in buffer (50mM Tris base, 1mM MgCl2, pH 7.4, 4 °C) at a protein concentration of approximately 4 mg protein/ml and aliquots were stored at -80 °C until use.
All competition data were analysed using the iterative non-linear regression curve fitting software supplied with GraphPad Prism 8.1. A single site competition model was fitted to the data using the least squares algorithm. […] Data are expressed as the mean ± standard error of the mean (SEM). The Student’s t-test (GraphPad Prism 8.1) was used to determine statistical significance.

[11] = test system: γ‐aminobutyric acid‐a receptor; details: cited from earlier work
[12] = 90 mg, 90mg XBD173 single oral dose, participant 2
[13] = 90 mg, 90mg XBD173 single oral dose, Mean (SEM)
[14] = 90 mg, 90mg XBD173 single oral dose, participant 1
[15] = 90 mg, 90mg XBD173 single oral dose, participant 3
[16] = 90 mg, 90mg XBD173 single oral dose, participant 4
[17] = 90 mg, 90 mg XBD173 single oral dose, Median of 4 participants
[18] = 90 mg, 90 mg XBD173 single oral dose, participant 1
[19] = 90 mg, 90 mg XBD173 single oral dose, participant 2
[20] = 90 mg, 90 mg XBD173 single oral dose, participant 3
[21] = 90 mg, 90 mg XBD173 single oral dose, participant 4
[22] = 50 mg, 50mg etifoxine single oral dose, participant 2
[23] = 50 mg, 50mg etifoxine single oral dose, Mean (SEM)
[24] = 50 mg, 50mg etifoxine single oral dose, participant 3
[25] = 50 mg, 50mg etifoxine single oral dose, participant 4
[26] = 50 mg, 50mg etifoxine single oral dose, participant 1
[27] = 50 mg, 50 mg etifoxine single oral dose, Median of 4 participants
[28] = 50 mg, 50 mg etifoxine single oral dose, participant 1
[29] = 50 mg, 50 mg etifoxine single oral dose, participant 2
[30] = 50 mg, 50 mg etifoxine single oral dose, participant 3
[31] = 50 mg, 50 mg etifoxine single oral dose, participant 4

Chain of TSPO (Homo sapiens, UniProt P30536) (P30536 2-169): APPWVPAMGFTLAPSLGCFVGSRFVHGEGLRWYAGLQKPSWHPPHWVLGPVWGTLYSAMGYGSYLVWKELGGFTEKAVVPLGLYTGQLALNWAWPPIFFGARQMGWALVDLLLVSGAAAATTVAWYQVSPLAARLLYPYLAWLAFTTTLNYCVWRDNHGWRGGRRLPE

CCN(Cc1ccccc1)C(=O)Cn1c(=O)n(C)c2cnc(-c3ccccc3)nc21 [XBD173]
AUClast ([1]; 90 mg XBD173 single oral dose, Max of 4 participants): 556 ng·h/mL
AUClast ([1]; 90 mg XBD173 single oral dose, Min of 4 participants): 74 ng·h/mL
Estimate of plasma concentration (total) ([1]; 90 mg oral XBD173): ~ 320 nM
Adverse events [1]: No adverse events were reported
concentration at 30 min [1, 12]: 5.7 ng/mL
concentration at 60 min [1, 13]: 31.2 ng/mL
concentration at 60 min [1, 14]: 28.4 ng/mL
concentration at 60 min [1, 12]: 15.4 ng/mL
concentration at 60 min [1, 15]: 62.7 ng/mL
concentration at 60 min [1, 16]: 18.4 ng/mL
concentration at 120 min [1, 13]: 106 ng/mL
concentration at 120 min [1, 14]: 55.8 ng/mL
concentration at 120 min [1, 12]: 24.2 ng/mL
concentration at 120 min [1, 15]: 263 ng/mL
concentration at 120 min [1, 16]: 82.7 ng/mL
concentration at 180 min [1, 13]: 99.7 ng/mL
concentration at 180 min [1, 14]: 43.3 ng/mL
concentration at 180 min [1, 12]: 23 ng/mL
concentration at 180 min [1, 15]: 161 ng/mL
concentration at 180 min [1, 16]: 171 ng/mL
concentration at 240 min [1, 13]: 87.6 ng/mL
concentration at 240 min [1, 14]: 40.4 ng/mL
concentration at 240 min [1, 12]: 24.5 ng/mL
concentration at 240 min [1, 15]: 139 ng/mL
concentration at 240 min [1, 16]: 146 ng/mL
AUC(0-t) [1, 17]: 247 ng·h/mL
Cmax [1, 17]: 114 ng/mL
Tmax [1, 17]: 2.5 h
AUC(0-t) [1, 18]: 148 ng·h/mL
Cmax [1, 18]: 56 ng/mL
Tmax [1, 18]: 2 h
AUC(0-t) [1, 19]: 74 ng·h/mL
Cmax [1, 19]: 25 ng/mL
Tmax [1, 19]: 4 h
AUC(0-t) [1, 20]: 556 ng·h/mL
Cmax [1, 20]: 263 ng/mL
Tmax [1, 20]: 2 h
AUC(0-t) [1, 21]: 345 ng·h/mL
Cmax [1, 21]: 171 ng/mL
Tmax [1, 21]: 3 h
Fraction in plasma bound [2]: 99.66%
Affinity for TSPO in the human brain (TSPO [3]): 2 to 3 nM
Predicted TSPO occupancy (TSPO [4]; from free plasma concentration, in HABs): ~ 30%
Predicted TSPO occupancy from total plasma concentration (TSPO [4]; total plasma concentration ~320 nM): > 99%
Peak plasma concentrations ([5]; 90‐mg dose): micromolar range
Plasma concentration reached ([5]; 90‐mg dose): 1000 nM
Accumulation on repeated dosing [5]: does not accumulate
fraction unbound at 4 h, 1 μM (in vitro): 0.0034

CCNC1=Nc2ccc(Cl)cc2C(C)(c2ccccc2)O1 (centres unmarked) [etifoxine]
AUC0‐4 h ([1]; 50 mg etifoxine single oral dose, Max of 4 participants): 83 ng·h/mL
AUC0‐4 h ([1]; 50 mg etifoxine single oral dose, Min of 4 participants): 59 ng·h/mL
Adverse events [1]: No adverse events were reported
Accumulation after multiple doses ([1]; etifoxine 50 mg TDS for 7 days, day 7 vs day 1 plasma concentration): did not find evidence for significant etifoxine accumulation; also recorded: did not find evidence for drug accumulation
concentration at 30 min [1, 22]: 4 ng/mL
concentration at 60 min [1, 23]: 8.2 ng/mL
concentration at 60 min [1, 22]: 15.9 ng/mL
concentration at 60 min [1, 24]: 6.2 ng/mL
concentration at 60 min [1, 25]: 2.4 ng/mL
concentration at 120 min [1, 23]: 29.8 ng/mL
concentration at 120 min [1, 26]: 15.5 ng/mL
concentration at 120 min [1, 22]: 33.4 ng/mL
concentration at 120 min [1, 24]: 39.4 ng/mL
concentration at 120 min [1, 25]: 30.7 ng/mL
concentration at 180 min [1, 23]: 22.9 ng/mL
concentration at 180 min [1, 26]: 24.2 ng/mL
concentration at 180 min [1, 22]: 12.3 ng/mL
concentration at 180 min [1, 24]: 27.1 ng/mL
concentration at 180 min [1, 25]: 27.9 ng/mL
concentration at 240 min [1, 23]: 18 ng/mL
concentration at 240 min [1, 26]: 22.7 ng/mL
concentration at 240 min [1, 22]: 9.2 ng/mL
concentration at 240 min [1, 24]: 20.1 ng/mL
concentration at 240 min [1, 25]: 20.1 ng/mL
Cmax [1, 27]: 32 ng/mL
Tmax [1, 27]: 2 h
Cmax [1, 28]: 24 ng/mL
Tmax [1, 28]: 3 h
Cmax [1, 29]: 33 ng/mL
Tmax [1, 29]: 2 h
Cmax [1, 30]: 39 ng/mL
Tmax [1, 30]: 2 h
Cmax [1, 31]: 31 ng/mL
Tmax [1, 31]: 2 h
AUC [1, 27]: 68 ng·h/mL
AUC [1, 28]: 59 ng·h/mL
AUC [1, 29]: 64 ng·h/mL
AUC [1, 30]: 83 ng·h/mL
AUC [1, 31]: 71 ng·h/mL
IC50 [6]: ~6.7 µM
Fraction in plasma bound [2]: 99.71%
Plasma free fraction [2]: 0.29%
Highest concentration that could be studied due to limitations of solubility [7]: ≤ 30 µM
Binding affinity for TSPO (TSPO [8]; rodent heart): 22.5 µM
Binding affinity for TSPO (TSPO [8]; rodent kidney): 14 µM and 9 µM
Clinical scores [9]: improved clinical scores
Ki (TSPO [10]; read-out: Affinity of etifoxine for TSPO estimated here, value used for the occupancy estimate): 7.6 µM
Ki (TSPO [10]; read-out: Estimated Ki for the whole population, single site binding curve, human brain tissue, 8 donors (4 HABs, 4 LABs), 95% CI 4.5–14.6 μM, competition curve did not fully plateau): 7.8 µM and ~7.8 µM
Ki (TSPO [10]; read-out: Mean Ki, human brain tissue, high affinity binders (HABs), n = 4, [3H]PK11195 0.3 nM): 7.6 ± 2.2 µM
Concentration above which pharmacodynamic actions at the receptor are elicited [11]: above 1 μM
